Test results reported in patent US20230010299A1, “HETEROCYCLIC TRPML1 AGONISTS” (LIBRA THERAPEUTICS, INC., priority 2019, published 2023).

These compounds were tested against T1, TRPML1 (Homo sapiens, UniProt Q9GZU1) (assay: Cellular TRPML1 assay (FLIPR TETRA, GCaMP6f calcium read-out)). Conditions: HEK T-REx/GCaMP6f/TRPML1 cells; Ca2+ response over 300 s, normalized to ML-SA1 50 μM; Ca2+ free or Optimem condition not given; read-out: Ec50 (Activity of TRPML1 agonists).
T1 construct: expressed in transfected cells
T1 sequence (Q9GZU1 whole entry): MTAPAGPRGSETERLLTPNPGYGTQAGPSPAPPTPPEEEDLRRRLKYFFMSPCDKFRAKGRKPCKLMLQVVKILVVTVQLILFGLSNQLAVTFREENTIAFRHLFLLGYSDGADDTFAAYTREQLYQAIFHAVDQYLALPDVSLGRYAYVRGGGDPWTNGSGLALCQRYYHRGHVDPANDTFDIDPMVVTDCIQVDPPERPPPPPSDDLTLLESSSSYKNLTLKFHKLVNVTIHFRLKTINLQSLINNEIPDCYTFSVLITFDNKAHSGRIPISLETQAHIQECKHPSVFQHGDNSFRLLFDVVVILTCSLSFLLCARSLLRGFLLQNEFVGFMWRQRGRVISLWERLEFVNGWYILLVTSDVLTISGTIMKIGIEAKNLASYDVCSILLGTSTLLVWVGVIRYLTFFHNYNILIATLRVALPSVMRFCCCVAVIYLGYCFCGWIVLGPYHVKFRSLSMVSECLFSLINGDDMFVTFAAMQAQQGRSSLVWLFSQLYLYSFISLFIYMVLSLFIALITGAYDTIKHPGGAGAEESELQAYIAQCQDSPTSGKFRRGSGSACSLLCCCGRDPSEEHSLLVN
Type: cell-based
Procedure: Buffers and reagents • PBS (D-PBS without calcium and magnesium; EuroClone) • Trypsin (Trypsin 0.05%, EDTA 0.02% in PBS; EuroClone) • DMSO (Sigma) • Ca^2+ free Tyrode's buffer: in-house solution (130 mM NaCl, 5 mM KCl, 1 mM MgCl2, 5 mM NaHCO3, 20 mM HEPES in water at pH 7.4; sterile filtered). • Opti-MEM (Gibco) • Agonist: ML-SA1 (Sigma); stock: 60 mM in DMSO, stored at −20° C. • Blocker: ML-SI3 (in house synthesis); stock: 20 mM in DMSO, stored at −20° C.
The final clone for the TRPML1 assay is HEK T-REx/GCaMP6f/TRPML1.
GCaMP6f is a genetically encoded calcium indicator that is stably expressed in this cell line and used as a fluorescent read-out.
Experiments are performed in 384 MTP format. Cells are seeded at 15000 cells/well either in 25 μl/well of growth medium or in 20 μl/well of Optimem+0.5% FBS without selection antibiotics. Twenty-four hours later, cells are assayed for the response to various compounds using the Ca^2+ sensitive GCaMP6f protein stably expressed in the cells as readout.
The experiment is performed in a 384-well format according to the following procedures for either Ca^2+ free or Optimem conditions: • Ca^2+ free condition (in absence of extracellular Ca^2+): • 24 h after seeding, pre-incubate the cells at room temperature for about 10′. • Then remove the culture medium and replace it with 20 μL of Ca^2+ free Tyrode's buffer. • Start the experiment at the FLIPR^TETRA by injecting 10 μL/w of 3× concentrated test compounds and controls in Ca^2+ free Tyrode's buffer. Monitor the kinetic response over a period of 300 seconds. • Final DMSO concentration: 0.5% • Optimem condition (in presence of extracellular Ca^2+): • 24 h after seeding, pre-incubate the cells at room temperature for about 10′. • Start the experiment at the FLIPR^TETRA by injecting 10 μL/w of 3× concentrated test compounds and controls in Ca^2+ free Tyrode's buffer. Monitor the kinetic response over a period of 300 seconds. • Final DMSO concentration: 0.5%
Data from FLIPR^TETRA measurements are analyzed with the Genedata Screener® software.
Stimulator controls (Col 2): injection of ML-SA1 EC100 (50 μM) in alternated wells positions
Neutral controls (Col 2): injection of 0 mM Ca^2+ free Tyrode's buffer in alternated wells positions.
Test wells (Col 3-22): test compounds dose response curve from either 100 μM with 1:2 dilution steps or from 50 μM with 1:3.16 dilution steps.

Row | EC50 | Compound
1 | 33.5 µM | O=S(=O)(Nc1ccccc1N1CCCCC1)c1sccc1C1OCCO1 [Example 11, 3-(1,3-dioxolan-2-yl)-N-[2-(piperidin-1-yl)phenyl]thiophene-2-sulfonamide]
2 | 2.8 µM | CN(C)S(=O)(=O)c1ccc(S(=O)(=O)Nc2ccccc2N2CCC(c3ccccc3)CC2)cc1 [Example 12, N1,N1-dimethyl-N4-[2-(4-phenylpiperidin-1-yl)phenyl]benzene-1,4-disulfonamide]
3 | 19.7 µM | CCCN(C)C(=O)C1CCN(c2ccccc2NS(=O)(=O)c2ccc(S(=O)(=O)N(C)C)cc2)CC1 [Example 14, 1-(2-((4-(N,N-dimethylsulfamoyl)phenyl)sulfonamido)phenyl)-N-methyl-N-propylpiperidine-4-carboxamide]
4 | 59.1 µM | CN(C(=O)c1ccc(S(=O)(=O)N(C)C)cc1)c1ccccc1N1CCCCC1 [Example 15, 4-(dimethylsulfamoyl)-N-methyl-N-[2-(piperidin-1-yl)phenyl]benzamide]
5 | 14.6 µM | CC(C)(C)c1ccc(S(=O)(=O)Nc2ccccc2N2CC3CCC2C3)s1 (stereo not shown) [Example 16, N-(2-{2-azabicyclo[2.2.1]heptan-2-yl}phenyl)-5-tert-butylthiophene-2-sulfonamide]
6 | 18.2 µM | CCc1ccc(S(=O)(=O)Nc2ccccc2N2CC3CCC2C3)s1 (stereo not shown) [Example 17, N-(2-{2-azabicyclo[2.2.1]heptan-2-yl}phenyl)-5-ethylthiophene-2-sulfonamide]
7 | 3.5 µM | CCc1ccc(S(=O)(=O)Nc2ccccc2N2CCN(C(=O)OC(C)(C)C)CC2)cc1 [Example 18, tert-butyl 4-(2-((4-ethylphenyl)sulfonamido)phenyl)piperazine-1-carboxylate]
8 | 55.6 µM | CCc1ccc(S(=O)(=O)N(C)c2ccccc2N2CC3CCC2C3)s1 (stereo not shown) [Example 21, N-(2-{2-azabicyclo[2.2.1]heptan-2-yl}phenyl)-5-ethyl-N-methylthiophene-2-sulfonamide]
9 | 98 µM | CN(C)S(=O)(=O)c1ccc(S(=O)(=O)NC2CCCCC2N2CCCCC2)cc1 (stereo not shown) [Example 22, N1,N1-dimethyl-N4-[2-(piperidin-1-yl)cyclohexyl]benzene-1,4-disulfonamide]
10 | 15.5 µM | Cc1cccc(S(=O)(=O)Nc2ccccc2N2CCCCC2)c1 [Example 23, 3-methyl-N-[2-(piperidin-1-yl)phenyl]benzene-1-sulfonamide]
11 | 13.3 µM | CN(C)S(=O)(=O)c1ccc(S(=O)(=O)Nc2ccccc2N2CCOCC2)cc1 [Example 27, N1,N1-dimethyl-N4-[2-(morpholin-4-yl)phenyl]benzene-1,4-disulfonamide]
12 | 2.9 µM | CC(C)c1ccc(S(=O)(=O)Nc2ccccc2N2CCN(C(=O)OC(C)(C)C)CC2)cc1 [Example 28, tert-butyl 4-(2-((4-isopropylphenyl)sulfonamido)phenyl)piperazine-1-carboxylate]
13 | 2.3 µM | CC(C)c1ccc(S(=O)(=O)Nc2ccccc2N2CCC(C(=O)OC(C)(C)C)CC2)cc1 [Example 29, tert-butyl 1-(2-((4-isopropylphenyl)sulfonamido)phenyl)piperidine-4-carboxylate]
14 | 50 µM | CN(C)S(=O)(=O)c1ccc(S(=O)(=O)Nc2ccccc2CN2CCCCC2)cc1 [Example 30, N1,N1-dimethyl-N4-(2-(piperidin-1-ylmethyl)phenyl)benzene-1,4-disulfonamide]
15 | 6 µM | CC(C)Oc1ccc(S(=O)(=O)Nc2ccccc2N2CCC(C(=O)OC(C)(C)C)CC2)cc1 [Example 31, tert-butyl 1-(2-((4-isopropoxyphenyl)sulfonamido)phenyl)piperidine-4-carboxylate]
16 | 19.2 µM | CN(C)S(=O)(=O)c1ccc(S(=O)(=O)Nc2ccccc2N2CCCC2)cc1 [Example 32, N1,N1-dimethyl-N4-[2-(pyrrolidin-1-yl)phenyl]benzene-1,4-disulfonamide]
17 | 7.7 µM | CN(C)S(=O)(=O)c1ccc(S(=O)(=O)Nc2ccccc2N2CCCC(c3ccccc3)C2)cc1 (stereo not shown) [Example 35, N1,N1-dimethyl-N4-[2-(3-phenylpiperidin-1-yl)phenyl]benzene-1,4-disulfonamide]

Row | EC50 | Compound
18 | 7.3 µM | COC1CCCN(c2ccccc2NS(=O)(=O)c2ccc(S(=O)(=O)N(C)C)cc2)C1 (stereo not shown) [Example 36, N4-[2-(3-methoxypiperidin-1-yl)phenyl]-N1,N1-dimethylbenzene-1,4-disulfonamide]
19 | 6.3 µM | CN(C)S(=O)(=O)c1ccc(S(=O)(=O)Nc2ccccc2N2CCC(c3ccccc3)C2)cc1 (stereo not shown) [Example 37, N1,N1-dimethyl-N4-[2-(3-phenylpyrrolidin-1-yl)phenyl]benzene-1,4-disulfonamide]
20 | 34.5 µM | CN(C)S(=O)(=O)c1ccc(S(=O)(=O)Nc2ccccc2N2CCC(O)CC2)cc1 [Example 38, N1-(2-(4-hydroxypiperidin-1-yl)phenyl)-N4,N4-dimethylbenzene-1,4-disulfonamide]
21 | 54.5 µM | CC(C)Oc1ccc(S(=O)(=O)Nc2ccccc2N2CCCCC2)cc1 [Example 39, 4-isopropoxy-N-(2-(piperidin-1-yl)phenyl)benzenesulfonamide]
22 | 7 µM | CN(C)S(=O)(=O)c1ccc(S(=O)(=O)Nc2ccccc2N2CCCOCC2)cc1 [Example 43, N1-(2-(l,4-oxazepan-4-yl)phenyl)-N4,N4-dimethylbenzene-1,4-disulfonamide]
23 | 2.6 µM | CN(C)S(=O)(=O)c1ccc(S(=O)(=O)Nc2ccccc2N2CCC(F)CC2)cc1 [Example 44, N1-(2-(4-fluoropiperidin-1-yl)phenyl)-N4,N4-dimethylbenzene-1,4-disulfonamide]
24 | 1.9 µM | CCCOC1CCN(c2ccccc2NS(=O)(=O)c2ccc(S(=O)(=O)N(C)C)cc2)CC1 [Example 45, N1,N1-dimethyl-N4-(2-(4-propoxypiperidin-1-yl)phenyl)benzene-1,4-disulfonamide]
25 | 5.2 µM | Cc1ccccc1S(=O)(=O)Nc1ccccc1N1CCN(C(=O)OC(C)(C)C)CC1 [Example 47, tert-butyl 4-(2-((2-methylphenyl)sulfonamido)phenyl)piperazine-1-carboxylate]
26 | 29.3 µM | CN(C(=O)c1ccc(S(=O)(=O)N(C)C)cc1)c1ccccc1N1CC2CCC1C2 (stereo not shown) [Example 49, N-(2-{2-azabicyclo[2.2.1]heptan-2-yl}phenyl)-4-(dimethylsulfamoyl)-N-methylbenzamide]
27 | 2.2 µM | Cc1ccc(S(=O)(=O)Nc2ccccc2N2CCN(C(=O)OC(C)(C)C)CC2)c(C)c1 [Example 50, tert-butyl 4-(2-((2,4-dimethylphenyl)sulfonamido)phenyl)piperazine-1-carboxylate]
28 | 3 µM | Cc1ccc(S(=O)(=O)Nc2ccccc2N2CCN(C(=O)OC(C)(C)C)CC2)cc1C [Example 51, tert-butyl 4-(2-((3,4-dimethylphenyl)sulfonamido)phenyl)piperazine-1-carboxylate]
29 | 20 µM | Cc1cc(C)cc(S(=O)(=O)Nc2ccccc2N2CCN(C(=O)OC(C)(C)C)CC2)c1 [Example 54, tert-butyl 4-(2-((3,5-dimethylphenyl)sulfonamido)phenyl)piperazine-1-carboxylate]
30 | 6.1 µM | CN(C)S(=O)(=O)c1ccc(S(=O)(=O)NC2CCCCC2N2CCC(c3ccccc3)CC2)cc1 (stereo not shown) [Example 55, N1,N1-dimethyl-N4-[2-(4-phenylpiperidin-1-yl)cyclohexyl]benzene-1,4-disulfonamide]
31 | 3.6 µM | Cc1nc(C)c(S(=O)(=O)Nc2ccccc2N2CCN(C(=O)OC(C)(C)C)CC2)s1 [Example 56, tert-butyl 4-(2-((2,4-dimethylthiazole)-5-sulfonamido)phenyl)piperazine-1-carboxylate]
32 | 1.6 µM | Cc1cc(S(=O)(=O)Nc2ccccc2N2CCN(C(=O)OC(C)(C)C)CC2)c(C)s1 [Example 59, tert-butyl 4-(2-((2,5-dimethylthiophene)-3-sulfonamido)phenyl)piperazine-1-carboxylate]
33 | 7.3 µM | Cc1cncc(S(=O)(=O)Nc2ccccc2N2CCN(C(=O)OC(C)(C)C)CC2)c1 [Example 60, tert-butyl 4-(2-((5-methylpyridine)-3-sulfonamido)phenyl)piperazine-carboxylate]
34 | 39.5 µM | CN(C)S(=O)(=O)c1ccc(S(=O)(=O)NC2CCCCC2N2CCOCC2)cc1 (stereo not shown) [Example 61, N1,N1-dimethyl-N4-[2-(morpholin-4-yl)cyclohexyl]benzene-1,4-disulfonamide]
